Measured values: patent US9376392B2, “2-(tert-butoxy)-2-(7-methylquinolin-6-yl) acetic acid derivatives for treating AIDS” (Gilead Sciences, Inc., priority 2012, dated 2016)

What follows are compounds tested on HIV-IIIb (MT-4 cells) (assay: Test A: Antiviral Assays in MT4 Cells). Settings: MT4, 120 h, MT-4 cells infected with HIV-IIIb, 5 days of incubation, CellTiter-Glo readout.
Format: cell-based
Protocol: The antiviral properties of a compound disclosed herein may be determined using Test A described below.
Test A: Antiviral Assays in MT4 Cells
For the antiviral assay utilizing MT-4 cells, 0.4 μL of […] test concentration of 3-fold serially diluted compound in DMSO was added to 40 μL of cell growth medium (RPMI 1640, 10% FBS, 1% penicillin/Streptomycin, 1% L-Glutamine, 1% HEPES) in each well of 384-well assay plates (10 concentrations) in quadruplicate.
1 mL aliquots of 2×10e6 MT-4 cells are pre-infected for 1 and 3 hrs respectively, @ 37° C. with 25 μL (MT4) or of either cell growth medium (mock-infected) or a fresh 1:250 dilution of an HIV-IIIb concentrated ABI stock (0.004 m.o.i. for MT4 cells). Infected and uninfected cells are diluted in cell growth medium and 35 μL of 2000 (for MT4) cells is added to each well of the assay plates.
Assay plates were then incubated in a 37° C. incubator. After 5 days of incubation, […] 2× concentrated CellTiter-Glo™ Reagent (catalog #G7573, Promega Biosciences, Inc., Madison, Wis.) was added to each well of the assay plate. Cell lysis was carried out by incubating at room temperature for 2-3 min and then chemiluminescence was read using the Envision reader (PerkinElmer).

Compound	EC50 [nM]
Cc1cc2c(ccc(=O)n2CCCc2ccccc2)c(-c2ccc3c4c(ccnc24)CCO3)c1[C@H](OC(C)(C)C)C(=O)O (atropisomer, axis not shown) [Example 24, (S)-2-tert-Butoxy-2-((R)-5-(2,3-dihydropyrano[4,3,2-de]quinolin-7-yl)-7-methyl-2-oxo-1-(3-phenylpropyl)-1,2-dihydroquinolin-6-yl)acetic acid]	687
Cc1cc2c(ccc(=O)n2Cc2cncnc2)c(-c2ccc3c4c(ccnc24)CCO3)c1[C@H](OC(C)(C)C)C(=O)O (atropisomer, axis not shown) [Example 25, (S)-2-tert-butoxy-2-((R)-5-(2,3-dihydropyrano[4,3,2-de]quinolin-7-yl)-7-methyl-2-oxo-1-(pyrimidin-5-ylmethyl)-1,2-dihydroquinolin-6-yl)acetic acid]	472
COc1cccc(Cn2c(=O)ccc3c(-c4ccc5c6c(ccnc46)CCO5)c([C@H](OC(C)(C)C)C(=O)O)c(C)cc32)c1 (atropisomer, axis not shown) [Example 26, (S)-2-tert-butoxy-2-((R)-5-(2,3-dihydropyrano[4,3,2-de]quinolin-7-yl)-1-(3-methoxybenzyl)-7-methyl-2-oxo-1,2-dihydroquinolin-6-yl)acetic acid]	99.3
Cc1cc2c(ccc(=O)n2Cc2cc(F)cc(C(F)(F)F)c2)c(-c2ccc3c4c(ccnc24)CCO3)c1[C@H](OC(C)(C)C)C(=O)O (atropisomer, axis not shown) [Example 27, (S)-2-tert-Butoxy-2-((R)-5-(2,3-dihydropyrano[4,3,2-de]quinolin-7-yl)-1-(3-fluoro-5-(trifluoromethyl)benzyl)-7-methyl-2-oxo-1,2-dihydroquinolin-6-yl)acetic acid]	53.5
Cc1cc2c(ccc(=O)n2Cc2cccc3c2cnn3C)c(-c2ccc3c4c(ccnc24)CCO3)c1[C@H](OC(C)(C)C)C(=O)O (atropisomer, axis not shown) [Example 28, (S)-2-tert-Butoxy-2-((R)-5-(2,3-dihydropyrano[4,3,2-de]quinolin-7-yl)-7-methyl-1-((1-methyl-1H-indazol-4-yl)methyl)-2-oxo-1,2-dihydroquinolin-6-yl)acetic acid]	45.8
Cc1cc2c(ccc(=O)n2Cc2ccc3c(cnn3C)c2)c(-c2ccc3c4c(ccnc24)CCO3)c1[C@H](OC(C)(C)C)C(=O)O (atropisomer, axis not shown) [Example 29, (S)-2-tert-Butoxy-2-((R)-5-(2,3-dihydropyrano[4,3,2-de]quinolin-7-yl)-7-methyl-1-((1-methyl-1H-indazol-5-yl)methyl)-2-oxo-1,2-dihydroquinolin-6-yl)acetic acid]	85.5
Cc1cc2c(ccc(=O)n2Cc2cccc(C(F)F)c2)c(-c2ccc3c4c(ccnc24)CCO3)c1[C@H](OC(C)(C)C)C(=O)O (atropisomer, axis not shown) [Example 30, (S)-2-tert-Butoxy-2-((R)-1-(3-(difluoromethyl)benzyl)-5-(2,3-dihydropyrano[4,3,2-de]quinolin-7-yl)-7-methyl-2-oxo-1,2-dihydroquinolin-6-yl)acetic acid]	34.7
Cc1cc2c(ccc(=O)n2Cc2cncc(C(F)(F)F)c2)c(-c2ccc3c4c(ccnc24)CCO3)c1[C@H](OC(C)(C)C)C(=O)O (atropisomer, axis not shown) [Example 31, (S)-2-tert-Butoxy-2-((R)-5-(2,3-dihydropyrano[4,3,2-de]quinolin-7-yl)-7-methyl-2-oxo-1-((5-(trifluoromethyl)pyridin-3-yl)methyl)-1,2-dihydroquinolin-6-yl)acetic acid]	68.2
Cc1cc2c(ccc(=O)n2Cc2ccc(Oc3ccccc3)cc2)c(-c2ccc3c4c(ccnc24)CCO3)c1[C@H](OC(C)(C)C)C(=O)O (atropisomer, axis not shown) [Example 32, (S)-2-tert-Butoxy-2-((R)-5-(2,3-dihydropyrano[4,3,2-de]quinolin-7-yl)-7-methyl-2-oxo-1-(4-phenoxybenzyl)-1,2-dihydroquinolin-6-yl)acetic acid]	3060
COc1cc(Cn2c(=O)ccc3c(-c4ccc5c6c(ccnc46)CCO5)c([C@H](OC(C)(C)C)C(=O)O)c(C)cc32)cc(OC)c1 (atropisomer, axis not shown) [Example 33, (S)-2-tert-Butoxy-2-((R)-5-(2,3-dihydropyrano[4,3,2-de]quinolin-7-yl)-1-(3,5-dimethoxybenzyl)-7-methyl-2-oxo-1,2-dihydroquinolin-6-yl)acetic acid]	133
Cc1cccc(-n2c(=O)ccc3c(-c4ccc5c6c(ccnc46)CCO5)c([C@H](OC(C)(C)C)C(=O)O)c(C)cc32)c1 (atropisomer, axis not shown) [Example 35, (S)-2-tert-Butoxy-2-((R)-5-(2,3-dihydropyrano[4,3,2-de]quinolin-7-yl)-7-methyl-2-oxo-1-m-tolyl-1,2-dihydroquinolin-6-yl)acetic acid]	1470
Cc1cc2c(ccc(=O)n2-c2cccc(NS(C)(=O)=O)c2)c(-c2ccc3c4c(ccnc24)CCO3)c1[C@H](OC(C)(C)C)C(=O)O (atropisomer, axis not shown) [Example 36, (S)-2-tert-Butoxy-2-((R)-5-(2,3-dihydropyrano[4,3,2-de]quinolin-7-yl)-7-methyl-1-(3-(methylsulfonamido)phenyl)-2-oxo-1,2-dihydroquinolin-6-yl)acetic acid]	37400
Cc1cc2c(ccc(=O)n2-c2cccc(S(C)(=O)=O)c2)c(-c2ccc3c4c(ccnc24)CCO3)c1[C@H](OC(C)(C)C)C(=O)O (atropisomer, axis not shown) [Example 37, (S)-2-tert-Butoxy-2-((R)-5-(2,3-dihydropyrano[4,3,2-de]quinolin-7-yl)-7-methyl-1-(3-(methylsulfonyl)phenyl)-2-oxo-1,2-dihydroquinolin-6-yl)acetic acid]	8430
Cc1ccc2c(-c3ccc4c5c(ccnc35)CCO4)c([C@H](OC(C)(C)CCc3ccccc3)C(=O)O)c(C)cc2n1 (atropisomer, axis not shown) [Example 38, (2S)-2-((R)-5-(2,3-Dihydropyrano[4,3,2-de]quinolin-7-yl)-2,7-dimethylquinolin-6-yl)-2-(2-methyl-4-phenylbutan-2-yloxy)acetic acid]	38.1
CCCCCC(C)(C)O[C@H](C(=O)O)c1c(C)cc2nc(C)ccc2c1-c1ccc2c3c(ccnc13)CCO2 (atropisomer, axis not shown) [Example 43, (S)-2-((S)-5-(2,3-Dihydropyrano[4,3,2-de]quinolin-7-yl)-2,7-dimethylquinolin-6-yl)-2-(2-methylheptan-2-yloxy)acetic acid]	39400
CNc1ccc2c(-c3ccc4c5c(ccnc35)CCO4)c([C@H](OC(C)(C)C)C(=O)O)c(C)cc2n1 (atropisomer, axis not shown) [Example 46, (S)-2-tert-Butoxy-2-((R)-5-(2,3-dihydropyrano[4,3,2-de]quinolin-7-yl)-7-methyl-2-(methylamino)quinolin-6-yl)acetic acid]	265

Same assay, conditions: MT-4 cells infected with HIV-IIIb, 5 days of incubation, CellTiter-Glo readout

Compound	EC50 [nM]
CCCC(C)(C)O[C@H](C(=O)O)c1c(C)cc2nc(C)ccc2c1-c1ccc2c3c(ccnc13)CCO2 (atropisomer, axis not shown) [Example 39, (2S)-2-((R)-5-(2,3-Dihydropyrano[4,3,2-de]quinolin-7-yl)-2,7-dimethylquinolin-6-yl)-2-(2-methylpentan-2-yloxy)acetic acid]	12.3
CCCC(C)(C)O[C@H](C(=O)O)c1c(C)cc2nc(C)ccc2c1-c1ccc2c3c(ccnc13)CCO2 (atropisomer, axis not shown) [Example 40, (2S)-2-((S)-5-(2,3-Dihydropyrano[4,3,2-de]quinolin-7-yl)-2,7-dimethylquinolin-6-yl)-2-(2-methylpentan-2-yloxy)acetic acid]	2760
CCC(C)(CC)O[C@H](C(=O)O)c1c(C)cc2nc(C)ccc2c1-c1ccc2c3c(ccnc13)CCO2 (atropisomer, axis not shown) [Example 41, (S)-2-((R)-5-(2,3-Dihydropyrano[4,3,2-de]quinolin-7-yl)-2,7-dimethylquinolin-6-yl)-2-(3-methylpentan-3-yloxy)acetic acid]	39
CCC(C)(CC)O[C@H](C(=O)O)c1c(C)cc2nc(C)ccc2c1-c1ccc2c3c(ccnc13)CCO2 (atropisomer, axis not shown) [Example 42, (S)-2-((S)-5-(2,3-Dihydropyrano[4,3,2-de]quinolin-7-yl)-2,7-dimethylquinolin-6-yl)-2-(3-methylpentan-3-yloxy)acetic acid]	5630
CCC(C)(C)O[C@H](C(=O)O)c1c(C)cc2nc(C)ccc2c1-c1ccc2c3c(ccnc13)CCO2 (atropisomer, axis not shown) [Example 44, (S)-2-((R)-5-(2,3-Dihydropyrano[4,3,2-de]quinolin-7-yl)-2,7-dimethylquinolin-6-yl)-2-(tert-pentyloxy)acetic acid]	11.7
CCC(C)(C)O[C@H](C(=O)O)c1c(C)cc2nc(C)ccc2c1-c1ccc2c3c(ccnc13)CCO2 (atropisomer, axis not shown) [Example 45, (S)-2-((S)-5-(2,3-Dihydropyrano[4,3,2-de]quinolin-7-yl)-2,7-dimethylquinolin-6-yl)-2-(tert-pentyloxy)acetic acid]	13200
